This note sets out measurements from PubChem BioAssay (NCI).

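48-hour exposure; five concentrations; linearly interpolated endpoints. Here, GI50 denotes the concentration required for 50% inhibition of growth. TGI marks complete inhibition of growth.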 Where only a bound is given, the exact number is not on record here.

Common to all, as to test: growth of human tumour cells (NCI), 48 h
The test system of assay [1] is HL-60(TB) leukemia.
Assay [2] deals with HCC-2998 colon.
Assay [3] deals with OVCAR-4 ovarian.
The subject of assay [4] is SK-MEL-28 melanoma.
Assay [5] has as its system PC-3 prostate.
In assay [6] the test system is CAKI-1 renal.
In assay [7] the test system is MOLT-4 leukemia.
For assay [8], the system named is HT29 colon.
Assay [9] concerns SNB-19 CNS.
In assay [10] the test system is M14 melanoma.

As to `CCN(CC)c1sc(N(CC)CC)c2c1SSSSS2`, the GI50 in [1] is 3.08 µM; in [2] it was 0.935 µM; in [3], 0.697 µM; in assay [4], 1.55 µM; in assay [5], 2.05 µM; in assay [6], 1.49 µM. The GI50 is 0.343 µM in assay [7], 2.06 µM in assay [8], 2.64 µM in [9] and 1.45 µM in assay [10]. In addition, the TGI in [1] was more than 100 µM; in assay [2] it was 2.4 µM; in [3], 2.46 µM; in assay [4] it was 3.92 µM; in assay [5], 4.26 µM; in assay [6] it was 3.78 µM. Further, the TGI in assay [7] was more than 100 µM; in assay [8], 5.2 µM; in [9] it was 12.7 µM; in assay [10] it was 3.23 µM.
As to `COc1ccc(C(=O)COc2cccc(/C=C3\COc4ccc5ccccc5c4C3=O)c2)cc1`, the GI50 in assay [1] is 2.07 µM; in assay [2] it was 23.5 µM; in assay [3] it was 6.53 µM; in assay [4], 47.8 µM; in [5], 3.5 µM; in assay [6], 8.24 µM. The GI50 in [7] is 2.86 µM; in assay [8], 6.08 µM; in [9] it was 9.37 µM; in assay [10], 67.8 µM. The TGI was 6.83 µM in assay [1]; more than 100 µM in [2]; more than 100 µM in assay [3]; more than 100 µM in [4]; more than 100 µM in assay [5]; 78.3 µM in [6]. Further, the TGI is 18.9 µM in assay [7], more than 100 µM in [8], more than 100 µM in assay [9] and more than 100 µM in [10].
Regarding `COc1cc(NC(=O)c2cc(O)c(CC=C(C)C)c(O)c2)cc2c1O[C@]1(C)CC[C@@H](O)C(C)(C)[C@H]1C2`, the GI50 in assay [1] is 1.88 µM; in assay [2], 10.6 µM; in [3], 7.52 µM; in [4], 2.31 µM; in [5], 3.03 µM; in assay [6] it was 3.17 µM. For the same compound, the GI50 in [7] is 2.07 µM; in [8] it was 3.47 µM; in assay [9], 3.68 µM; in assay [10], 2.94 µM. Besides, the TGI in assay [1] is 18.7 µM; in assay [2] it was 24.8 µM; in assay [3], more than 100 µM; in [4] it was 16.8 µM; in assay [5], 35.1 µM; in [6], more than 100 µM. Also, the TGI in assay [7] amounted to 7.87 µM; in [8] it was 11.9 µM; in [9] it was 21 µM; in assay [10], 13.5 µM.
For `COC(=O)Nc1nc2ccc(Oc3ccc(NC(=O)Nc4ccccc4)cc3)cc2[nH]1`, the GI50 in assay [1] was 0.0654 µM; in assay [2], 0.458 µM; in assay [3], 0.207 µM; in [4] it was 0.348 µM; in assay [5] it was 0.15 µM; in [6] it was 3.4 µM. Moreover, the GI50 is 0.184 µM in [7], 0.0937 µM in [8], 0.183 µM in assay [9] and 0.168 µM in [10]. Further, the TGI in assay [1] was 0.295 µM; in assay [2] it was more than 17.7 µM; in assay [3], 5.68 µM; in [4], 6.4 µM; in [5] it was more than 9.6 µM; in [6] it was more than 21.7 µM. Moreover, the TGI was more than 10.3 µM in assay [7], 1.01 µM in assay [8], more than 17 µM in assay [9] and 2.6 µM in [10].
Consider `CC/C=C\C[C@@H]1C/C=C2/C(=O)C=C[C@H]2C/C=C\CCCC(=O)O1`, for which the GI50 in assay [1] was 0.277 µM; in [2], 0.259 µM; in assay [3], 1.04 µM; in assay [4] it was 0.424 µM; in assay [5], 0.535 µM; in [6] it was 0.42 µM. The GI50 in assay [7] is 0.551 µM; in assay [8] it was 0.267 µM; in assay [9], 1.25 µM; in assay [10], 0.237 µM. The TGI in [1] is 0.716 µM; in assay [2] it was 0.533 µM; in assay [3], 2.38 µM; in assay [4] it was 1.85 µM; in assay [5], 2.39 µM; in assay [6] it was 1.77 µM. In addition, the TGI in assay [7] is 2.71 µM; in assay [8], 0.677 µM; in [9] it was 3.36 µM; in [10] it was 1.03 µM.
For `O=C(N/N=C/c1cccc(O)c1O)c1ccccc1`, the GI50 in assay [1] is 0.301 µM; in [2], 3.2 µM; in assay [3], 0.312 µM; in [4], 1.24 µM; in [5] it was 0.725 µM; in assay [6], 0.519 µM. Moreover, the GI50 in [7] is 0.362 µM; in [8], 4.9 µM; in assay [9] it was 1.46 µM; in [10], 0.695 µM. Besides, the TGI in assay [1] was 1.94 µM; in assay [2] it was more than 100 µM; in [3] it was more than 29.5 µM; in assay [4], more than 100 µM; in assay [5], more than 100 µM; in [6], 16.5 µM. The TGI in assay [7] is more than 39.2 µM; in assay [8], more than 100 µM; in assay [9], more than 100 µM; in [10], 11.5 µM.
With `NCCCC[C@@H]1NC(=O)[C@H]2CCCN2C(=O)[C@H](Cc2ccccc2)NC(=O)[C@H](Cc2ccccc2)CNC1=O`, the GI50 in assay [1], in [2], in assay [3], in assay [4], in assay [5] and in [6] was more than 100 µM throughout. In addition, the GI50 in assay [7], in assay [8], in [9] and in assay [10] was more than 100 µM each time. For the same compound, the TGI in [1], in assay [2], in [3], in [4], in [5] and in [6] was more than 100 µM each time. The TGI in [7], in assay [8], in assay [9] and in assay [10] was more than 100 µM in each case.
